# Reference: patent US9597408B2, “Peptide-mediated non-covalent delivery of active agents across the blood-brain barrier” (Mayo Foundation for Medical Education and Research, priority 2009, dated 2017)
# Where no end group is shown, it is not given here.
# Key:
# [1] = test system: BBB; experiment: Necessity of covalent linking of K16 and ApoE moieties: β-galactosidase staining of brain sections; format: in vivo, mice; details: β-galactosidase mixed with the peptide(s); FIG. 7
# Procedure: Delivery of β-galactosidase in brain with K16 peptide (SEQ ID NO: 4) alone (A), with ApoE peptide only (B), with K16 peptide (SEQ ID NO: 4)+ApoE peptide (C), and with K16APoE peptide (SEQ ID NO: 22) (D).
# The necessity of covalent linking of the K16 (SEQ ID NO: 4) and ApoE (SEQ ID NO: 13) peptide moieties was evaluated for non-covalent transport of a protein across the BBB. For this, β-galactosidase was mixed with either the ApoE peptide, the peptide K16 (SEQ ID NO: 4), ApoE plus K16 (SEQ ID NO: 4) or with K16ApoE (SEQ ID NO: 22), and injected in mice.
# [2] = test system: BBB; parameters: species or system mice; details: mouse, in vivo
# Procedure: FIG. 8 illustrates the testing mutant ApoE peptides for their potential as non-covalent transporters of proteins across the BBB. A—no peptide, no β-gal; B—K16ApoE (SEQ ID NO: 22)+β-gal; C—K16L3N7 (SEQ ID NO: 126)+β-gal; D—K16L3L20 (SEQ ID NO: 127)+β-gal; E—K16N7L20 (SEQ ID NO: 128)+β-gal.
# β-galactosidase was mixed with equal amounts of various peptide transporters and injected into mice. Slides were prepared using 25 μm sections of the mice brains one hour after injection followed by development of enzyme staining (FIG. 8).
# [3] = test system: BBB; parameters: species or system mice; details: mouse, in vivo; remark: listed apart in the source
# Procedure: The delivery of radiolabeled IgG across the BBB in different brain regions in mice with and without the peptide K16ApoE (SEQ ID NO:22) was evaluated. In addition, the integrity of the BBB after delivery of IgG with K16ApoE (SEQ ID NO: 22) was examined. […] of ^125I-IgG were mixed with varying amounts of the peptide K16ApoE (SEQ ID NO: 22) (0-55 μmol), and the mixture injected intravenously into the mice. ^131I-IgG not complexed with the peptide was injected into the same animals at 59 minutes and allowed to circulate for 1 minute subsequent to the initial femoral vein injection of ^125I-IgG+K16ApoE (SEQ ID NO: 22). Uptake of ^125I-IgG and ^131I-IgG were measured in different areas of the brain after 60 minutes.
# PS values reflect the amount of ^125I-IgG that has crossed the BBB, whereas Vp values indicate the amount of ^131I-IgG at the BBB but which has not crossed the BBB.
# [4] = test system: brain; parameters: species or system mice; details: mouse, in vivo
# Procedure: FIG. 1 is a series of images illustrating the differences between delivery of Alexa-IgG complexed to K16ApoE (SEQ ID NO: 22) into brain and uncomplexed Alexa-IgG.
# In this experiment, AlexaIgG488 was injected into mice with or without mixing with K16ApoE peptide (SEQ ID NO:22). Brain sections were made 1 hour after delivery.
# [5] = test system: brain; experiment: β-galactosidase delivery in brain, enzyme activity staining of brain slices; format: in vivo
# Procedure: Required amount of the peptide and protein were mixed in a final volume of 300 μL PBS (phosphate buffered saline), and incubated at room temperature for 60 minutes. The mixture was vortexed for a few seconds, every fifteen minutes during the incubation period.
# The mixture was injected intravenously as a bolus into the lumen of the femoral vein. This was accomplished using a heat pulled PE50 catheter. At the conclusion of the experiment, the mouse was euthanized with a lethal dose of sodium pentobarbital. Each mouse was perfused with 10 mL PBS. This perfusion was accomplished through the standard trans cardial method. The brain was removed from the skull and positioned to make an initial coronal slice at −2.0 mm bregma. Subsequently, 25 μm coronal sections were cut on a cryostat and placed on charged slides for staining of β-galactosidase activity.
# Evaluation of β-galactosidase enzymatic activity was accomplished by an initial 15 minute fixation of the brain sections in 0.25% glutaraldehyde. The slides were washed with 3 changes of PBS for 5 minutes each and then rinsed in distilled water for 5 minutes. The brain sections were incubated in X-Gal (0.2%) working solution, pH 7.38, for 18 hours at 37° C. in covered containers. Following this incubation the sections were dehydrated and coverslips were applied.
# To evaluate the potential of K16ApoE (SEQ ID NO: 22) for delivering a protein across the BBB, the enzyme β-galactosidase was injected in mice with or without prior mixing with K16ApoE (SEQ ID NO: 22) (at a protein to peptide molar ratio of 1:70). The experiment was repeated more than a dozen times. […] It is speculated that either X-gal or 5-bromo-4-chloroindole or both somehow leach out of this region faster than other regions of the brain resulting to a faint signal for β-galactosidase activity.
# [6] = test system: mouse brain; experiment: microSPECT imaging of delivery of radioiodinated human IgG and IgM; format: in vivo
# Procedure: Micro SPECT/CT experiments were conducted on a Gamma Medica X SPECT System (GE Healthcare). Human IgG (Sigma) and IgM (Sigma) were labeled to a high specific activity using the Chloramine-T method. […] Immediately subsequent to the intravenous bolus injection, the mice were imaged every hour for a total of 6 hours. At the completion of the 6 hour time point, each mouse was euthanized and the systemic blood supply was transcardially perfused with 10 mL phosphate buffered saline, and imaged after 30 minutes.
# Since many potentially therapeutic proteins against brain-associated disorders are immunoglobulins, delivery of IgG and IgM through K16ApoE (SEQ ID NO: 22) in mouse brain was evaluated by micro-single photon emission computed tomography (microSPECT) imaging. For this, radioiodinated human IgG (Sigma, product # I 4506) and human IgM (Sigma, product # I 8260) were mixed with K16ApoE (SEQ ID NO: 22) and injected intravenously. Anesthetized animals were then subjected to imaging for 6 hours at 1 hour interval. Cardiac perfusion was then performed, after which final imaging was done at 30 minutes post-perfusion. Results from these experiments provide a number of indications (FIG. 4): First, it appears that peak delivery of both IgG and IgM into brain happens around 2 hours post-injection of the peptide-protein mix, after which uptake of the proteins in the brain remains relatively unchanged up to 6 hours (maximum time point tested). Second, cardiac perfusion appears to remove most of the radioactive protein in the vasculature, concomitantly increasing the difference between apparent brain-uptake of the protein with and without the carrier peptide (˜5-fold).
# [7] = test system: BBB; parameters: species or system mice; details: mouse, in vivo; remark: listed apart in the source
# Procedure: Each mouse (represented by A through G) received an injection of K16ApoE (SEQ ID NO: 22), followed by injection of β-galactosidase at the indicated times. Brain slices were made 4 hours after β-galactosidase injection and were followed by staining for activity of the enzyme. A—β-galactosidase was injected 1 minute after K16ApoE (SEQ ID NO: 22) injection. B—β-galactosidase was injected 5 minutes after K16ApoE (SEQ ID NO: 22) injection. C—β-galactosidase was injected 10 minutes after K16ApoE (SEQ ID NO: 22) injection. D—β-galactosidase was injected 30 minutes after K16ApoE (SEQ ID NO: 22) injection. E—β-galactosidase was injected 1 hour after K16ApoE (SEQ ID NO: 22) injection. F—β-galactosidase was injected 2 hours after K16ApoE (SEQ ID NO: 22) injection. G—β-galactosidase was injected 4 hours after K16ApoE (SEQ ID NO: 22) injection. H—positive control (β-galactosidase mixed with K16ApoE (SEQ ID NO: 22) was injected, brain slices were made 4 hours after the injection and proceeded for staining for enzyme activity).
# A transporter that efficiently carries a protein in the brain should not do so by impairing the integrity of the BBB. To evaluate if K16ApoE (SEQ ID NO: 22) impairs the integrity of the BBB, the peptide was first injected intravenously, then injected β-galactosidase at different time intervals. The control mice received the enzyme mixed with the peptide. […]
substance,measurement,setting,value
"KKKKKKKKKKKKKKKK [K16, KKKKKKKKKKKKKKKK]",β-galactosidase staining in brain sections,[1],β-galactosidase staining only in slides from mice receiving β-galactosidase mixed with K16ApoE
"KKKKKKKKKKKKKKKKLRLRLANHLRKLRKRLLRDA [mutant A, KKKK KKKK KKKK KKKK LRLR LANH LRKL RKRL LRDA]",transport of β-galactosidase compared with wild-type ApoE blood-brain barrier agent,[2],worse than the wild-type
"KKKKKKKKKKKKKKKKLRLRLASHLRKLRKRLLRDL [mutant B, KKKK KKKK KKKK KKKK LRLR LASH LRKL RKRL LRDL]",transport of β-galactosidase compared with wild-type ApoE blood-brain barrier agent,[2],at least as well as wild-type or better
"KKKKKKKKKKKKKKKKLRVRLANHLRKLRKRLLRDL [mutant C, KKKK KKKK KKKK KKKK LRVR LANH LRKL RKRL LRDL]",transport of β-galactosidase compared with wild-type ApoE blood-brain barrier agent,[2],at least as well as wild-type or better
"KKKKKKKKKKKKKKKKLRVRLASHLRKLRKRLLRDA [K16ApoE, KKKKKKKKKKKKKKKKLRVRLASHLRKLRKRLLRDA]",Vp values in all the brain regions examined (in words),[3],virtually unchanged
same,damage of the BBB due to prior exposure to the peptide,[3],not damaged
same,contrast and enhancement of brain structures compared to uncomplexed AlexaIgG488,[4],significantly brighter contrast and enhancement of brain structures
same,areas of the brain reached by the delivered β-galactosidase,"[5]; mouse, in vivo",virtually every area of the brain
same,β-galactosidase activity in brain,"[5]; mouse, in vivo",intense β-galactosidase activity
same,share of the injected immunoglobulins transported into the brain,"[6]; IgG and IgM, under the experimental condition",about 1%
same,difference between brain-uptake of the protein with and without the carrier peptide,"[6]; IgG and IgM, after cardiac perfusion",~5 fold
same,time of peak delivery of IgG and IgM into brain,"[6]; post-injection of peptide-protein mix, 70-fold molar excess of peptide, FIG. 4",around 2 hours
same,effect of the peptide by itself on the BBB,[7],did not seem to affect the BBB
same,time until binding of injected peptide to proteins and cells in the circulation is virtually complete,[7]; iv,≤ 10 min
"β-galactosidase: Bacterial β-galactosidase purchased from Calbiochem, enzyme injected alone [reference compound]",β-galactosidase activity in brain,"[5]; protein to peptide molar ratio 1:70 or enzyme alone, slices 6 hours after injection, FIG. 3A",no activity
